Biological target: human recombinant H-PGDS (Homo sapiens, UniProt O60760)
Assay: Fluorescence Intensity h-PGDS TBA Enzyme Assay
Assay type: biochemical
Details: 1:175,000 human recombinant H-PGDS, highest inhibitor concentration typically 1 μM
Summary of the method: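 Readout is PGH2 depletion: after a 42 s reaction with 5.0 μM PGH2 and 2.5 mM glutathione (pH 8.0 Tris, 10 min inhibitor preincubation), Fe(II) converts leftover PGH2 to MDA, which forms a fluorescent TBA complex. IC50s come from 11-point, 3-fold duplicate curves, 4-parameter fit.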

human recombinant H-PGDS, sequence (O60760 whole entry): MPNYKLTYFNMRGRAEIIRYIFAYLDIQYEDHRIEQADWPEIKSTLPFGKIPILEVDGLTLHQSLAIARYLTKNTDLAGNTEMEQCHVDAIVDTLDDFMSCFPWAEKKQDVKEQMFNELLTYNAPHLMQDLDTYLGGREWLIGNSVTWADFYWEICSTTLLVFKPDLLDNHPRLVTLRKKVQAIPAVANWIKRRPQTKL

SMILES | IC50 [nM]
CC(NC(=O)c1ccc(-c2cccc(F)c2)nc1)C1CC1 (stereo not shown) [Example 128, N-(1-Cyclopropylethyl)-6-(3-fluorophenyl)nicotinamide] | 28.3
C[C@H](O)CNC(=O)c1ccc(-c2cccc(F)c2)nc1 [Example 129, 6-(3-Fluorophenyl)-N-[(2S)-2-hydroxypropyl]nicotinamide] | 92
O=C(NCc1nc(-c2ccccc2)no1)c1ccc(-c2cccc(F)c2)nc1 [Example 133, 6-(3-Fluorophenyl)-N-[(3-phenyl-1,2,4-oxadiazol-5-yl)methyl]nicotinamide] | 59.2
CC(C)(C)OCCNC(=O)c1ccc(-c2cccc(F)c2)nc1 [Example 134, N-(2-tert-Butoxyethyl)-6-(3-fluorophenyl)nicotinamide] | 47.7
CCOC(=O)CCCCCNC(=O)c1ccc(-c2cccc(F)c2)nc1 [Example 137, Ethyl 6-({[6-(3-fluorophenyl)pyridin-3-yl]carbonyl}amino)hexanoate] | 11.2
Cc1nnc(C(C)NC(=O)c2ccc(-c3cccc(F)c3)nc2)[nH]1 (stereo not shown) [Example 138, 6-(3-Fluorophenyl)-N-[1-(5-methyl-4H-1,2,4-triazol-3-yl)ethyl]nicotinamide] | 287
O=C(NCC1(O)CCSCC1)c1ccc(-c2cccc(F)c2)nc1 [Example 139, 6-(3-Fluorophenyl)-N-[(4-hydroxytetrahydro-2H-thiopyran-4-yl)methyl]nicotinamide] | 39
COCCN1CCC2(CC1)CC(NC(=O)c1ccc(-c3cccc(F)c3)nc1)CO2 (stereo not shown) [Example 142, 6-(3-Fluorophenyl)-N-[8-(2-methoxyethyl)-1-oxa-8-azaspiro[4.5]dec-3-yl]nicotinamide] | 25.2
Cc1cc(C)nc(CCNC(=O)c2ccc(-c3cccc(F)c3)nc2)n1 [Example 143, N-[2-(4,6-Dimethylpyrimidin-2-yl)ethyl]-6-(3-fluorophenyl)nicotinamide] | 11
COC(=O)[C@@H](NC(=O)c1ccc(-c2cccc(F)c2)nc1)[C@@H](C)O [Example 147, Methyl N-{[6-(3-fluorophenyl)pyridin-3-yl]carbonyl}-L-threoninate] | 381
O=C(NCCCCO)c1ccc(-c2cccc(F)c2)nc1 [Example 149, 6-(3-Fluorophenyl)-N-(4-hydroxybutyl)nicotinamide] | 20.1
Cc1ccccc1CNC(=O)c1ccc(-c2ccccc2)nc1 [Example 151, N-(2-Methylbenzyl)-6-phenylnicotinamide] | 1.88
Cc1ccccc1CNC(=O)c1ccc(-c2cccc(F)c2)nc1 [Example 153, 6-(3-Fluorophenyl)-N-(2-methylbenzyl)nicotinamide] | 2.99
CCOC(=O)C(CNC(=O)c1ccc(-c2cccc(F)c2)nc1)C1CCCC1 (stereo not shown) [Example 155, Ethyl 2-cyclopentyl-3-({[6-(3-fluorophenyl)pyridin-3-yl]carbonyl}amino)propanoate] | 5.9
O=C(NCCCN1CCCC1=O)c1ccc(-c2cccc(F)c2)nc1 [Example 156, 6-(3-Fluorophenyl)-N-[3-(2-oxopyrrolidin-1-yl)propyl]nicotinamide] | 15.7
CCOC(=O)CC(C)NC(=O)c1ccc(-c2cccc(F)c2)nc1 (stereo not shown) [Example 157, Ethyl 3-({[6-(3-fluorophenyl)pyridin-3-yl]carbonyl}amino)butanoate] | 8.79
CN(C)CCNC(=O)c1ccc(-c2cccc(F)c2)nc1 [Example 158, N-[2-(Dimethylamino)ethyl]-6-(3-fluorophenyl)nicotinamide] | 337
CCOC(=O)CC(NC(=O)c1ccc(-c2cccc(F)c2)nc1)c1ccc(OC)cc1 (stereo not shown) [Example 162, Ethyl 3-({[6-(3-fluorophenyl)pyridin-3-yl]carbonyl}amino)-3-(4-methoxyphenyl)propanoate] | 19.6
O=C(NCCN1CCCCC1=O)c1ccc(-c2cccc(F)c2)nc1 [Example 164, 6-(3-Fluorophenyl)-N-[2-(2-oxopiperidin-1-yl)ethyl]nicotinamide] | 9.13
COC(=O)CNC(=O)[C@H](C)NC(=O)c1ccc(-c2cccc(F)c2)nc1 [Example 165, Methyl N-{[6-(3-fluorophenyl)pyridin-3-yl]carbonyl}-L-alanylglycinate] | 20.8
CS(=O)(=O)Cc1noc(CNC(=O)c2ccc(-c3cccc(F)c3)nc2)n1 [Example 167, 6-(3-Fluorophenyl)-N-({3-[(methylsulfonyl)methyl]-1,2,4-oxadiazol-5-yl}methyl)nicotinamide] | 285
CC(C)CNC(=O)c1ccc(-c2cccc(F)c2)nc1 [Example 170, 6-(3-Fluorophenyl)-N-isobutylnicotinamide] | 26.1
O=C(NCCC1CCCCO1)c1ccc(-c2cccc(F)c2)nc1 (stereo not shown) [Example 172, 6-(3-Ffluorophenyl)-N-[2-(tetrahydro-2H-pyran-2-yl)ethyl]nicotinamide] | 5.74
COC(=O)CNC(=O)c1ccc(-c2cccc(F)c2)nc1 [Example 173, Methyl N-{[6-(3-fluorophenyl)pyridin-3-yl]carbonyl}glycinate] | 82

Further lines, results first:

IC50 [nM] | SMILES
39.4 | Cc1c[nH]c(CCNC(=O)c2ccc(-c3cccc(F)c3)nc2)n1 [Example 130, 6-(3-Fluorophenyl)-N-[2-(4-methyl-1H-imidazol-2-yl)ethyl]nicotinamide]
27.2 | Cc1cc(C)n(CCCNC(=O)c2ccc(-c3cccc(F)c3)nc2)n1 [Example 131, N-[3-(3,5-Dimethyl-1H-pyrazol-1-yl)propyl]-6-(3-fluorophenyl)nicotinamide]
6.36 | Cc1ncsc1CCNC(=O)c1ccc(-c2cccc(F)c2)nc1 [Example 132, 6-(3-Fluorophenyl)-N-[2-(4-methyl-1,3-thiazol-5-yl)ethyl]nicotinamide]
46.5 | C=CCNC(=O)c1ccc(-c2cccc(F)c2)nc1 [Example 135, N-Allyl-6-(3-fluorophenyl)nicotinamide]
3.51 | O=C(NC1CCCCNC1=O)c1ccc(-c2cccc(F)c2)nc1 (stereo not shown) [Example 136, 6-(3-Fluorophenyl)-N-(2-oxoazepan-3-yl)nicotinamide]
32 | O=C(NCC1(O)CCCC1)c1ccc(-c2cccc(F)c2)nc1 [Example 140, 6-(3-Fluorophenyl)-N-[(1-hydroxycyclopentyl)methyl] nicotinamide]
34.5 | O=C(NCC1(O)CCC1)c1ccc(-c2cccc(F)c2)nc1 [Example 141, 6-(3-Fuorophenyl)-N-[(1-hydroxycyclobutyl)methyl] nicotinamide]
109 | CN1CCN(CC(NC(=O)c2ccc(-c3cccc(F)c3)nc2)c2ccccc2)CC1 (stereo not shown) [Example 144, 6-(3-Fluorophenyl)-N-[2-(4-methylpiperazin-1-yl)-1-phenylethyl]nicotinamide]
223 | CCOC(=O)C(C)(C)NC(=O)c1ccc(-c2cccc(F)c2)nc1 [Example 145, Ethyl N-{[6-(3-fluorophenyl)pyridin-3-yl]carbonyl}-2-methylalaninate]
34 | O=C(NCc1nc2cc(F)ccc2[nH]1)c1ccc(-c2cccc(F)c2)nc1 [Example 146, N-[(5-Fluoro-1H-benzimidazol-2-yl)methyl]-6-(3-fluorophenyl)nicotinamide]
32 | O=C(NCCN1CCNC1=O)c1ccc(-c2cccc(F)c2)nc1 [Example 148, 6-(3-Fluorophenyl)-N-[2-(2-oxoimidazolidin-1-yl)ethyl]nicotinamide]
2.88 | O=C(NC1COC2(CCN(c3nc4ccccc4[nH]3)CC2)C1)c1ccc(-c2cccc(F)c2)nc1 (stereo not shown) [Example 150, N-[8-(1H-Benzimidazol-2-yl)-1-oxa-8-azaspiro[4.5]dec-3-yl]-6-(3-fluorophenyl)nicotinamide]
4.49 | O=C(NCc1coc(-c2ccccc2)n1)c1ccc(-c2cccc(F)c2)nc1 [Example 152, 6-(3-Fluorophenyl)-N-[(2-phenyl-1,3-oxazol-4-yl)methyl]nicotinamide]
43.7 | O=C(NCc1ccc(Cl)c(Cl)c1)c1ccc(-c2cccc(F)c2)nc1 [Example 154, N-(3,4-Dichlorobenzyl)-6-(3-fluorophenyl)nicotinamide]
391 | CCOC(=O)C1(NC(=O)c2ccc(-c3cccc(F)c3)nc2)CCOCC1 [Example 159, Ethyl 4-({[6-(3-fluorophenyl)pyridin-3-yl]carbonyl}amino)tetrahydro-2H-pyran-4-carboxylate]
40.8 | O=C(NC1CCN(Cc2ccc(Cl)c(Cl)c2)C1=O)c1ccc(-c2cccc(F)c2)nc1 (stereo not shown) [Example 160, N-[1-(3,4-Dichlorobenzyl)-2-oxopyrrolidin-3-yl]-6-(3-fluorophenyl)nicotinamide]
88 | CN(C)C(=O)CNC(=O)c1ccc(-c2cccc(F)c2)nc1 [Example 161, N-[2-(dimethylamino)-2-oxoethyl]-6-(3-fluorophenyl)nicotinamide]
146 | CCOC(=O)C(CNC(=O)c1ccc(-c2cccc(F)c2)nc1)c1c(F)cccc1F (stereo not shown) [Example 163, Ethyl 2-(2,6-difluorophenyl)-3-({[6-(3-fluorophenyl)pyridin-3-yl]carbonyl}amino)propanoate]
2.57 | CCOC(=O)CC[C@@H](NC(=O)c1ccc(-c2cccc(F)c2)nc1)C(=O)OCC [Example 166, Diethyl N-{[6-(3-fluorophenyl)pyridin-3-yl]carbonyl}-D-glutamate]
175 | CN(C)CC(C)(C)CNC(=O)c1ccc(-c2cccc(F)c2)nc1 [Example 168, N-[3-(Dimethylamino)-2,2-dimethylpropyl]-6-(3-fluorophenyl)nicotinamide]
43.5 | O=C(NCCN1CCOCC1)c1ccc(-c2cccc(F)c2)nc1 [Example 169, 6-(3-Fluorophenyl)-N-(2-morpholin-4-ylethyl)nicotinamide]
52.7 | COC(=O)CC(NC(=O)c1ccc(-c2cccc(F)c2)nc1)c1cccnc1 (stereo not shown) [Example 171, Methyl 3-({[6-(3-fluorophenyl)pyridin-3-yl]carbonyl}amino)-3-pyridin-3-ylpropanoate]
